From patent US10800790B2, “Sesquiterpenoid STAT3 inhibitors” (University of Hawaii, priority 2013, dated 2020)
Entries after “also recorded” stand apart in the source; their conditions may differ. Read-outs that look alike come from different tables or passages of the source.

What was measured:
[1] = tested on: U251MG glioblastoma cells; experiment: CyQuant cell viability/proliferation assay, U251MG; type: cell-based, human; parameters: key to Activity against U251: +, active; −, no activity; +/−, poorly active; details: for Activity against U251: Table 1 grade, Table 1/FIG. 2 compound numbering; for Activity against the cell lines, in words: tested at 5 micromolar; for Cell-type selectivity of growth inhibition, in words: U251MG versus other cells incl. NIH3T3
Procedure: (§1) The cell viability assay was performed as previously reported (Zhang X, et al. (2010)). Briefly, a 10 millimolar concentration stock solution in dimethylsulfoxide (DMSO) of the tested molecule was first prepared. Next, the stock solution was diluted down to various working solutions in water. Thus, a formulation of the tested compound in a DMSO/water mixture was used to test for cell viability. (A novel small-molecule disrupts STAT3 SH2 domainphosphotyrosine interactions and STAT3-dependent tumor processes, Biochem Pharmacol 79:1398-1409; Zhao W, Jaganathan S, & Turkson J (2010), A cell-permeable STAT3 SH2 domain mimetic inhibits STAT3 activation and induces antitumor cell effects in vitro. J Biol Chem. 285:35855-35865). Cells (U251MG, MDA-MB-231 or NIH3T3) were obtained from ATCC (Manassas, Va.) and were cultured in 96-well plates at 2,000 cells per well for 24 h and were treated with compounds (5 micromolar concentration) for 72 h. Cell viabilty was determined using CyQuant assay, according to the manufacturer's (Invitrogen, CA, USA) instructions. Relative viability of the treated cells was normalized to the DMSO-treated control cells.

[2] = tested on: MDA-MB-231 breast cancer cells; experiment: CyQuant cell viability/proliferation assay, MDA-MB-231; type: cell-based, human; parameters: key to Activity against 231: +, active; −, no activity; +/−, poorly active
Procedure: as §1

[3] = tested on: normal NIH3T3 mouse fibroblasts; experiment: CyQuant cell viability/proliferation assay, NIH3T3; type: cell-based; parameters: key to Activity against 3T3: +, active; −, no activity; +/−, poorly active
Procedure: as §1

[4] = tested on: pY705STAT3 in U251MG or MDA-MB-231 cells; experiment: Immunoblotting of pY705STAT3 in treated tumor cells; details: 5 micromolar, U251MG or MDA-MB-231; for Inhibition of pY705STAT3 (immunoblot), in words: Table 3 numbering (isolates 1-16); for Effect on pY705STAT3 / STAT3 activity (immunoblot), in words: 0-24 h, Table 1/FIG. 2 numbering
Procedure: Positions of STATs:DNA complexes or proteins in gel are labeled; control lanes (0) represent nuclear extracts or whole-cell lysates prepared from 0.05% DMSO-treated cells. Data are representative of at least three to four independent determinations.
Lysates of equal total protein prepared in the lysis buffer (50 mM Hepes, pH 7.5, 150 mM NaCl, 2 mM EDTA, 1% Triton X-100, 0.1% SDS), were subjected to IP or Western blotting analysis. Antibodies against STAT3, pY705STAT3, Src, pY416Src, Erk1/2, and pT202/Y204Erk1/2 and GAPDH (Cell Signaling Technology, Danvers, Mass.), and anti-β-actin, and HSP105 (Santa Cruz Biotechnology, Dallas, Tex.) are from the designated sources.
Whole-cell lysates were prepared in boiling SDS sample loading buffer to extract total proteins, as reported previously. […] Nitrocellulose membranes were probed with primary antibodies, and the detection of horseradish peroxidase-conjugated secondary antibodies by enhanced chemiluminescence (Amersham) was performed. Antibodies used were monoclonal anti-pYSTAT3 and anti-STAT3 antibodies (Cell Signaling Technology, Danvers, Mass.).

Stat3 = Stat3 (Homo sapiens, UniProt P40763); experiment: Activity against Stat3 (Table 1 grade); type: biochemical; parameters: key: +, active; −, no activity; +/−, poorly active; details: Table 1/FIG. 2 compound numbering
[5] = target: T1, STAT3 (NIH3T3/v-Src nuclear extracts) (Mus musculus, UniProt P42227); experiment: In vitro STAT3 DNA-binding activity/EMSA, nuclear extracts incubated with compound; type: biochemical; details: 5 micromolar, 30 min at room temperature
T1 construct: nuclear extracts prepared from v-Src-transformed mouse fibroblasts (NIH3T3/v-Src) containing active STAT3; endogenous in cells; host or cells: NIH3T3/v-Src mouse fibroblasts (nuclear extract)
Procedure: To further determine the effects of the bioactive agents on STAT3 activity, nuclear extracts prepared from v-Src-transformed mouse fibroblasts (NIH3T3/v-Src) containing active STAT3 were directly incubated with 5 micromolar compounds for 30 min at room temperature prior to performing STAT3 DNA-binding activity in vitro with EMSA analysis. […] These studies indicate that agents directly interact with STAT3 and disrupt STAT3:STAT3 dimers, thereby inhibiting its DNA-binding activity.
Data are representative of 2-3 independent determinations.
Nuclear extract preparations and DNA-binding/electrophoretic mobility shift assay (EMSA) were carried out as previously described (Xu, supra). Nuclear extract preparations and DNA-binding activity/electrophoretic mobility shift assay (EMSA) were carried out as previously described. U251 MG and MDA-MB-231 cells culture were pretreated with different concentrations of the compounds for the indicated period and then harvested for nuclear extract preparation and DNA-binding assay with EMSA analysis. The ^32P-labeled oligonucleotide probe used was hSIE (high-affinity sis-inducible element) from the c-fos gene, m67 variant (5′-[…]-3′) that binds STAT3. Except where indicated, nuclear extracts were pre-incubated with compound for 30 min at room temperature prior to incubation with the radiolabeled probe for 30 min at 30° C. before subjecting to EMSA analysis. Where appropriate, bands corresponding to DNA-binding activities were scanned and quantified for each concentration of compound using ImageJ and plotted as percent of control (vehicle) against concentration of compound, from which the IC50 values were derived.

[6] = tested on: STAT3 DNA-binding activity; experiment: STAT3 DNA-binding activity (EMSA) of nuclear extracts from treated tumor cells; details: 5 micromolar, time course
Procedure: Positions of STATs:DNA complexes or proteins in gel are labeled; control lanes (0) represent nuclear extracts or whole-cell lysates prepared from 0.05% DMSO-treated cells.
Nuclear extract preparations and DNA-binding/electrophoretic mobility shift assay (EMSA) were carried out as previously described (Xu, supra). Nuclear extract preparations and DNA-binding activity/electrophoretic mobility shift assay (EMSA) were carried out as previously described. U251 MG and MDA-MB-231 cells culture were pretreated with different concentrations of the compounds for the indicated period and then harvested for nuclear extract preparation and DNA-binding assay with EMSA analysis. […] Except where indicated, nuclear extracts were pre-incubated with compound for 30 min at room temperature prior to incubation with the radiolabeled probe for 30 min at 30° C. before subjecting to EMSA analysis.

[7] = tested on: STAT3 tyrosine phosphorylation; details: Butturini et al. 2011; cited from earlier work
[8] = tested on: intracellular glutathione; details: literature reports, cited from earlier work
[9] = tested on: GSH levels in U251 MG cells; experiment: Glutathione (GSH) levels in U251 MG cells
Procedure: Reduced glutathione (GSH) and oxidized glutathione disulfide (GSSG) levels were assayed using a commercially available kit (Cayman Chemical, Ann Arbor, Mich.) and following the manufacturer's instructions.

[10] = at 5 μM, 72 h, Table 3 numbering (isolates 1-16)
[11] = Table 1 grade, Table 1/FIG. 2 compound numbering

T1 sequence (P42227 whole entry): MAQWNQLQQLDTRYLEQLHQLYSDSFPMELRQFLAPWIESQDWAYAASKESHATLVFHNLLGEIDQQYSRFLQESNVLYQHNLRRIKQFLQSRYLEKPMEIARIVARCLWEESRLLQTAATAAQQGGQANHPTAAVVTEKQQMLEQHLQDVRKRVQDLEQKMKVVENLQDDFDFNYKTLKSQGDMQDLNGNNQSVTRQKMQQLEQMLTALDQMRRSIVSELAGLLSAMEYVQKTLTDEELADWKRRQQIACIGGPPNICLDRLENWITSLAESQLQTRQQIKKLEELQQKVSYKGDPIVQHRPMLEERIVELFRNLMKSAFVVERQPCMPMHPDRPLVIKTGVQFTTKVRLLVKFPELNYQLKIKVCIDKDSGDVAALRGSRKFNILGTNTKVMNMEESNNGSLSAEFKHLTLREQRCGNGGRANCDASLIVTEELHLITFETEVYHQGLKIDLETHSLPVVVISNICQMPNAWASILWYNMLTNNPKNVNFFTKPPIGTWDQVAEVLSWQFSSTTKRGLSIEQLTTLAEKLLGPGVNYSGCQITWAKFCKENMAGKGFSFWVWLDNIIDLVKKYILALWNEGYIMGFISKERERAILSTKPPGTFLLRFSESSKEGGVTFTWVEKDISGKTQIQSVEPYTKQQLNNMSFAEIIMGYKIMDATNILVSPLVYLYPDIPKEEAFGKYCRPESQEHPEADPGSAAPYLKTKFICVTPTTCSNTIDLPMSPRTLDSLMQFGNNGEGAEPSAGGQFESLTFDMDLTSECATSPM
Stat3, sequence (P40763 whole entry, species assumed): as the sequence (P42227 whole entry) above, with D760E counted along it

Compound: 8α-(2′Z-tigloyloxy)hirsutinolide-13-O-acetate [Compound 2]
- Inhibitory effect on viability of U251MG (tumor) cells, in words ([1]; 5 micromolar, Table 3 numbering (isolates 1-16)): weak inhibitory effect
- U251MG % inhibition [1, 10]: 48.6%
- MDA-MB-231 % inhibition [2, 10]: ne (ne, no effect inhibition)
- NIH-3T3 % inhibition [3, 10]: 8.0%
- Inhibition of pY705STAT3 (immunoblot), in words [4]: inhibited STAT3 phosphorylation

Compound: C=C(C)C(=O)OC1CC(C)C2(O)CCC(C)(C=C3OC(=O)C(CO)=C31)O2 (stereo not drawn) [Compound 18]
- Activity against U251 [1]: +/−
- Activity against the cell lines, in words ([1]; Table 1/FIG. 2 numbering): moderate to weak activity
- Activity against Stat3 (Stat3): −
- Inhibition of STAT3 DNA-binding activity in vitro (EMSA) [5]: moderate to no effect
- Effect on pY705STAT3 / STAT3 activity (immunoblot), in words [4]: little effects on pY705STAT3

Compound: CC=C(C)C(=O)OC1CC(C)C2(O)CCC(C)(C=C3OC(=O)C(CO)=C31)O2 (stereo not drawn) [Compound 19]
- Activity against U251 [1]: −
- Activity against the cell lines, in words ([1]; Table 1/FIG. 2 numbering): moderate to weak activity
- Activity against Stat3 (Stat3): −
- Inhibition of STAT3 DNA-binding activity in vitro (EMSA) [5]: moderate to no effect
- Effect on pY705STAT3 / STAT3 activity (immunoblot), in words [4]: little effects on pY705STAT3

Compound: CC=C(C)C(=O)OC1CC(C)C2(O)CCC(C)(C=C3OC(=O)C(COC(C)=O)=C31)O2 (stereo not drawn) [Compound 20]
- IC50 ([1]; 72-h treatment, Table 1/FIG. 2 numbering, read-out: IC50 for the inhibition of U251MG cell viability): 4.3 µM
- Cell-type selectivity of growth inhibition, in words ([1]; Table 1/FIG. 2 numbering): selective against the growth of human glioma U251MG cells
- Activity against 231 [2, 11]: +
- Activity against 3T3 [3, 11]: +/−
- Activity against Stat3 (Stat3): +
- Inhibition of STAT3 DNA-binding activity in vitro (EMSA) [5]: strong inhibition
- Effect on pY705STAT3 / STAT3 activity (immunoblot), in words [4]: early inhibition at 15-30 min
- Inhibition of STAT3 DNA-binding activity in treated cells (EMSA) [6]: early inhibition at 15-30 min

Compound: C=C(C)C(=O)OC1CC(C)C2(OC)CCC(C)(C=C3OC(=O)C(CO)=C31)O2 (stereo not drawn) [Compound 28]
- Activity against U251 [1]: −
- Activity against the cell lines, in words ([1]; Table 1/FIG. 2 numbering): moderate to weak activity
- Activity against Stat3 (Stat3): −
- Inhibition of STAT3 DNA-binding activity in vitro (EMSA) [5]: moderate to no effect
- Effect on pY705STAT3 / STAT3 activity (immunoblot), in words [4]: little effects on pY705STAT3

Compound: C=C1C(=O)O[C@@H]2/C=C(\C)CC/C=C(\C)CC[C@@H]12 [costunolide, reference compound]
- inhibition at 5 µM ([1]; Homo sapiens, U-251, at 5 μM, 72 h, Table 3 numbering (isolates 1-16)): 17.5%
- Cell-type selectivity of growth inhibition, in words ([1]; Table 1/FIG. 2 numbering): generally toxic to U251MG and normal NIH3T3
- Cell-type selectivity of growth inhibition, in words ([1]; Table 1/FIG. 2 numbering, listed as costinulide): non-specfically active against glioma U251MG and normal NIH3T3 mouse fibroblasts
- inhibition at 5 µM ([2]; Homo sapiens, MDA-MB-231, at 5 μM, 72 h, Table 3 numbering (isolates 1-16)): 10.5%
- inhibition at 5 µM ([3]; Mus musculus, NIH3T3, at 5 μM, 72 h, Table 3 numbering (isolates 1-16), read-out: NIH-3T3 % inhibition): 41.6%
- Tyrosine-phosphorylation of STAT3 in cells treated with IL-6 [7]: inhibited the tyrosine-phosphorylation of STAT3
- Intracellular glutathione content [8]: rapid drop in intracellular glutathione content
- Intracellular glutathione content ([8]; listed as costinulide): suppress the intracellular glutathione (GSH) pool
- Effect on GSH levels [9]: suppressed GSH levels
- Effect on pY705STAT3 / STAT3 activity (immunoblot), in words ([4]; listed as costinulide): little effect on STAT3 activity; also recorded: minimal effects on pY705STAT3
- Inhibition of pY705STAT3 (immunoblot), in words [4]: negligible or weak

Compound: C=C1CC[C@H]2C(=C)CC[C@H]3C(=C)C(=O)O[C@@H]3[C@@H]12 [dehydrocostuslactone]
- Tyrosine-phosphorylation of STAT3 in cells treated with IL-6 [7]: inhibited the tyrosine-phosphorylation of STAT3
- Intracellular glutathione content [8]: rapid drop in intracellular glutathione content

Compound: C/C1=C\[C@H]2OC(=O)[C@@H](C)[C@@H]2CC/C(C)=C/CC1 [dihydrocostunolide]
- Tyrosine-phosphorylation of STAT3 in cells treated with IL-6 [7]: failed to exert inhibitory action toward STAT3 tyrosine phosphorylation

Compound: (9Z,12S,13S)-dihydroxy-9-octadecanoic acid [Compound 16]
- U251MG % inhibition [1, 10]: ne (ne, no effect inhibition)
- MDA-MB-231 % inhibition [2, 10]: ne (ne, no effect inhibition)
- NIH-3T3 % inhibition [3, 10]: ne (ne, no effect inhibition)
